How the values were obtained:
[1] = target: LDL / apoB-100 (Homo sapiens, UniProt P04114); assay: Circular dichroism of LDL secondary structure; type: biochemical; conditions: LDL 100 μg/ml, compound 10 μM, PBS pH 7.4, 37° C., up to 48 h; for random coil of LDL after incubation: native LDL 27±2%; for α helical structure of LDL after incubation (loss of secondary structure): native LDL ~40±2%
Protocol: Circular dichroism. […] Spectra were recorded in the peptidic range (200-260 nm). To increase the signal-to-noise ratio, multiple spectra (three) were averaged for each measurement.

[2] = Cytotoxicity assay (LDH release), HAEC; type: cell-based; conditions: human, 0-100 μM
Protocol: (§1) Cytotoxicity assays. WI-L2 human B-lymphocyte line, HAAE-1 human abdominal aortic endothelial line, MH—S murine alveolar macrophage line, and J774A.1 murine tissue macrophage line were obtained from the ATCC. Human aortic endothelial cells (HAEC) and human vascular smooth muscle cells (VSMS) were obtained from Cambrex Bio Science. Jurkat E6-1T-lymphocytes were kindly provided by Dr. J. Kaye (The Scripps Research Institute). Cells were cultured in ATCC-recommended media with 10% fetal calf serum. Cells were incubated in a controlled atmosphere at 37° C., with 5 or 7% CO2. For lactate dehydrogenase (LDH) release assays, adherent cells were harvested either by addition of 0.05% trypsin/EDTA or by scraping. The cells obtained were seeded onto 96-well microtiter plates (25,000 cells/well) and allowed to recover for 24-48 h. […] Cytotoxicity was then determined by measuring lactate dehydrogenase (LDH) release from cells in culture. […] 100% Cytotoxicity was defined as the maximum amount of LDH released by dead cells as shown by trypan blue exclusion, or the highest amount of LDH detected upon lysis of cells by 0.9% Triton X-100. The IC50 values were determined by comparison of the raw duplicate data for concentration versus cytotoxicity (%) to non-linear regression analysis (Hill plot) using Graphpad v3.0 software for Macintosh. […]

[3] = Cytotoxicity assay (LDH release), WI-L2; type: cell-based; conditions: human
Protocol: as §1

[4] = Cytotoxicity assay (LDH release), VSMC; type: cell-based; conditions: human, 0-100 μM
Protocol: as §1

[5] = Cytotoxicity assay (LDH release), Jurkat; type: cell-based; conditions: human
Protocol: as §1

[6] = Decrease of extractable 5a in stored plasma; type: in vitro ADME; conditions: stored human plasma, preliminary investigations
From the text: The combined organic fractions were evaporated in vacuo.

[7] = Cytotoxicity assay (LDH release), MH-S; type: cell-based, murine; conditions: mouse, MH-S cells, 0-100 μM
Protocol: as §1

[8] = Cytotoxicity assay (LDH release), J774A.1; type: cell-based, murine; conditions: mouse, J774A.1 cells, 0-100 μM
Protocol: as §1

Chain of LDL / apoB-100 (P04114 28-4563): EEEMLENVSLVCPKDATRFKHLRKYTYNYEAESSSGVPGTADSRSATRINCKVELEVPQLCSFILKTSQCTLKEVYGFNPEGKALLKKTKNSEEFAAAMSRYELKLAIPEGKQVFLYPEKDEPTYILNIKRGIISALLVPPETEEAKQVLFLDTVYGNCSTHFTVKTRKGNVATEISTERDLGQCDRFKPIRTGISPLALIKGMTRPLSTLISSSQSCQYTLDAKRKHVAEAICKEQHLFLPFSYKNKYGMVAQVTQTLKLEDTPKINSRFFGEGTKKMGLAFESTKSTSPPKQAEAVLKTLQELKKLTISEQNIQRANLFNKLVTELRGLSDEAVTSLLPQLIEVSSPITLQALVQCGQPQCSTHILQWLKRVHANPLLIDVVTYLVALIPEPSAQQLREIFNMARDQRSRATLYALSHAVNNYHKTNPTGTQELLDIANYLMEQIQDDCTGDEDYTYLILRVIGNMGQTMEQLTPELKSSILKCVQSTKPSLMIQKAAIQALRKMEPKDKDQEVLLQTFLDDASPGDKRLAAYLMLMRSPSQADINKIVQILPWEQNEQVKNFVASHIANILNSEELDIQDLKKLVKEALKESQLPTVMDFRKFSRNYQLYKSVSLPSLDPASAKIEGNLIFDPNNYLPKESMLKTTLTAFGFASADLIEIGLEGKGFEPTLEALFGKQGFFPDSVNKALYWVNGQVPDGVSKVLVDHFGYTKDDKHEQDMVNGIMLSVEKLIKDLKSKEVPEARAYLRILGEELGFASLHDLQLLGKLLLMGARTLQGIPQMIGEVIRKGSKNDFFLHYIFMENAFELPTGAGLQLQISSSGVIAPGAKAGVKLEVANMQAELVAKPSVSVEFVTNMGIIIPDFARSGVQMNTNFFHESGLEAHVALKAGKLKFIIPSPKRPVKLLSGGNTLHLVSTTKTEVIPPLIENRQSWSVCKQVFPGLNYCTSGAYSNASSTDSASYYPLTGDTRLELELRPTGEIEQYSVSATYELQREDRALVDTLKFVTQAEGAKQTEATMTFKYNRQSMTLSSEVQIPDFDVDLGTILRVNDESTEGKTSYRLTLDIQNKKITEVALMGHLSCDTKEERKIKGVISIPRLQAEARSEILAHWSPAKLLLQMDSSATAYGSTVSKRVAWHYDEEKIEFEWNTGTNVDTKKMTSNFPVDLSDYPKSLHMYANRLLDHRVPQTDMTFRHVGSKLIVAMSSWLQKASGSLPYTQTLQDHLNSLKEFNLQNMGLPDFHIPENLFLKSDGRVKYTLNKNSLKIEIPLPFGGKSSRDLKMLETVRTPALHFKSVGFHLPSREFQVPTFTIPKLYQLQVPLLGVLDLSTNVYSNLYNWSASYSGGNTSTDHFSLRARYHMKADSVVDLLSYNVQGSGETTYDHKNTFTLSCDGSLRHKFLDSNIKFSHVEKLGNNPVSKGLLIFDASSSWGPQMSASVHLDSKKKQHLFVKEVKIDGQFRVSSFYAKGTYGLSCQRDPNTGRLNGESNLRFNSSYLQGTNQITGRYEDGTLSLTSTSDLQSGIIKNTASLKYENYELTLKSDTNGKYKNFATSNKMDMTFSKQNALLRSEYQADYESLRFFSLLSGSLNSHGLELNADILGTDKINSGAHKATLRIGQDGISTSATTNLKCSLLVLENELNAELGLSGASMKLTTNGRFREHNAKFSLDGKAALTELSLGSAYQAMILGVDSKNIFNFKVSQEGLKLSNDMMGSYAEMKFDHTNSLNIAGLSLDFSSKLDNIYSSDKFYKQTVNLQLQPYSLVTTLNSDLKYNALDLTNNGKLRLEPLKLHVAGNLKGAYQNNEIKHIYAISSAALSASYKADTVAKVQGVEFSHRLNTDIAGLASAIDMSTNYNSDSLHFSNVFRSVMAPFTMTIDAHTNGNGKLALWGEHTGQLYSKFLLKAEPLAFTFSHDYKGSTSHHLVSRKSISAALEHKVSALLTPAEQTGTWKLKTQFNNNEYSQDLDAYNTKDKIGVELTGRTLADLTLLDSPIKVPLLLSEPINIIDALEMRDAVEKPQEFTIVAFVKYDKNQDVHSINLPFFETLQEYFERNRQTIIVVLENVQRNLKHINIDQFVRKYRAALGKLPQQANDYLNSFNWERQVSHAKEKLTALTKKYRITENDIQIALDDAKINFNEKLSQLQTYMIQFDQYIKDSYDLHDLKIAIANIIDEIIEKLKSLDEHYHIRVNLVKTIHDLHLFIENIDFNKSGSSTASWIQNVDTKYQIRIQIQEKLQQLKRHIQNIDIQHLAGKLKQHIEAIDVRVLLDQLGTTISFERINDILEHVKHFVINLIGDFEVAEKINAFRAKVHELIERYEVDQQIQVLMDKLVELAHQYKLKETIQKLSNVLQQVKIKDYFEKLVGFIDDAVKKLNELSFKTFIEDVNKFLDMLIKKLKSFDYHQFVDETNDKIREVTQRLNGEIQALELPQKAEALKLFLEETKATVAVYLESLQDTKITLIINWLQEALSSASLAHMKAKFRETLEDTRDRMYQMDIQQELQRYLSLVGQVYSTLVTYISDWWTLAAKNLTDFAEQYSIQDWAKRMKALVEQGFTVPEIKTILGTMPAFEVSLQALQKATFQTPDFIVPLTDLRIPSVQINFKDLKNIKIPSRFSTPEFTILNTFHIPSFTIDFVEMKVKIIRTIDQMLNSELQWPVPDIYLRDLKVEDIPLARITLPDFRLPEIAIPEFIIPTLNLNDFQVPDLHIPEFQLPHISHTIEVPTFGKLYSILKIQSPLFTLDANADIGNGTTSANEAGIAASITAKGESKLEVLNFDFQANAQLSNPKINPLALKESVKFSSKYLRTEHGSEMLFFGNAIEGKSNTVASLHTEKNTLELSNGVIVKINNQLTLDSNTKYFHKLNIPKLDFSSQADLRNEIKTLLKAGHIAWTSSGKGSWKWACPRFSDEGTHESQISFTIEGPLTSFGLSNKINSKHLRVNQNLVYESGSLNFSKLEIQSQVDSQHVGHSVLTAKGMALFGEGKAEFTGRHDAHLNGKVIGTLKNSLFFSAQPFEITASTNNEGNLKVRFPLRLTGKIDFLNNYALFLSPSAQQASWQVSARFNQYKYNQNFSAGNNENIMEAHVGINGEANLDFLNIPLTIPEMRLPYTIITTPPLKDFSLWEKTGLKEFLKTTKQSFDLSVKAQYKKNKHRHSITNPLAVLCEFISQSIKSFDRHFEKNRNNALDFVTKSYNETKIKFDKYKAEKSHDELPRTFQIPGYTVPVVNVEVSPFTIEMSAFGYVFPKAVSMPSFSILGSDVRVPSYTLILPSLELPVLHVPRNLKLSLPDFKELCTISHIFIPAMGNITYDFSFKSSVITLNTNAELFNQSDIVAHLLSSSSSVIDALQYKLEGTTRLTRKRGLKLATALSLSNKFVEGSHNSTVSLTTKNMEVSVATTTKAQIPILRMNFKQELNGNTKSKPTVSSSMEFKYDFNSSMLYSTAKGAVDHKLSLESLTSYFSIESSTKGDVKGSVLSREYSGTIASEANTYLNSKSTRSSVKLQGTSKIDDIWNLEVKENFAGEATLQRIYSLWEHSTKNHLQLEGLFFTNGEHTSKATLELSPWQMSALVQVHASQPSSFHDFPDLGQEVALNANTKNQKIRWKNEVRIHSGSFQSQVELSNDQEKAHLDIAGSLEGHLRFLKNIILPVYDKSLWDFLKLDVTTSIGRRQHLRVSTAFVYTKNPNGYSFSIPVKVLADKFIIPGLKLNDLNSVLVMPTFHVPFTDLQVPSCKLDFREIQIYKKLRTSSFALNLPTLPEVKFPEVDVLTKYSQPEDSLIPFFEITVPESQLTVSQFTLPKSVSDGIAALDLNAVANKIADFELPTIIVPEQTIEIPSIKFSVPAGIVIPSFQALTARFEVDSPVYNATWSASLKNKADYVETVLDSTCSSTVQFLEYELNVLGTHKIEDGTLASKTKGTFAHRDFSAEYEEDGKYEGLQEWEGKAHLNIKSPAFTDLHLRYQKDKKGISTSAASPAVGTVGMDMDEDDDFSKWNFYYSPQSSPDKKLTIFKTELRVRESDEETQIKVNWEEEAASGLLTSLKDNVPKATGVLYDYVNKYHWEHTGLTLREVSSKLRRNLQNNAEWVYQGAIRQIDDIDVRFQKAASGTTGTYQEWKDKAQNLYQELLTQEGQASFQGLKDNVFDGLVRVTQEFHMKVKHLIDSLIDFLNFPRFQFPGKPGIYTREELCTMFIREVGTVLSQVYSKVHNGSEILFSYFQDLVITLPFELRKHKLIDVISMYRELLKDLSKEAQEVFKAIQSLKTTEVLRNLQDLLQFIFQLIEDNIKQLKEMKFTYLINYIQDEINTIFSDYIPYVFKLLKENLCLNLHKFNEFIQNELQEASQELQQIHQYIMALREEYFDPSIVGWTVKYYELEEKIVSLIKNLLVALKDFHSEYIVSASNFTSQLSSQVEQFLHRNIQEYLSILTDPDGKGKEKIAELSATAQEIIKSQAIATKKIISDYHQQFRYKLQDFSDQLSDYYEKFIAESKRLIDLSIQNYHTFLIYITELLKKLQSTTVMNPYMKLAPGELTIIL

SMILES | random coil of LDL after incubation [1] [%] | α helical structure of LDL after incubation (loss of secondary structure) [1] [%] | IC50 at 18 h ([2]; human aortic endothelial cells (HAEC)) [µM] | IC50 at 18 h [3] [µM] | IC50 at 18 h ([4]; vascular smooth muscle cells (VSMC)) [µM] | IC50 at 18 h [5] [µM] | decrease of the amount that can be extracted from plasma [6] | IC50 at 18 h ([2]; HAEC cells) [µM] | IC50 at 18 h ([3]; WIL2 cells, 18 h, 0-100 μM, read-out: IC50 (cytotoxicity, LDH release)) [µM] | IC50 at 18 h ([4]; VSMC cells) [µM] | IC50 at 18 h [7] [µM] | IC50 at 18 h [8] [µM] | IC50 at 18 h ([5]; Jurkat E6.1 cells, 18 h, 0-100 μM, read-out: IC50 (cytotoxicity, LDH release)) [µM]
CC(C)CCC[C@@H](C)[C@H]1CCC2C(CC=O)C([C@@]3(C)CC[C@H](O)CC3=O)CC[C@@]21C (stereo partly drawn) [4a, 3β-Hydroxy-5-oxo-5,6-secocholestan-6-al] | ~39±2 | ~23±5 | 24.6 ± 3.2 | 10.9 ± 1.6 | 21.9 ± 2.2 | 15.5 ± 1.7 |  |  |  |  |  |  | 
CC(C)CCC[C@@H](C)[C@H]1CCC2C3C(CC[C@@]21C)[C@@]1(C)CC[C@H](O)C[C@@]1(O)[C@@H]3C=O (stereo partly drawn) [5a, 3β-Hydroxy-5β-hydroxy-B-norcholestane-6β-carboxaldehyde] | 32±4 | ~20±2 |  |  |  |  | about 5 % per day | 18.2 ± 1.9 | 17.7 ± 2.3 | 29.8 ± 2.8 | 13.6 ± 1.1 | 26.1 ± 2.8 | 12.6 ± 1.9

From patent US20060217359A1, “Therapeutic procedures” (priority 2003, published 2006)
